# Experimental data taken from ChEMBL document CHEMBL3045168, “Thiamethoxam acts as a target-site synergist of spinosad in resistant strains of Frankliniella occidentalis” (2013).
# Tests used:
# [1] = system: Frankliniella occidentalis; assay: Resistance factor, LC50 for Frankliniella occidentalis R1S (western flower thrips) to LC50 for Frankliniella occidentalis TFR; assay type: functional
# [2] = system: Frankliniella occidentalis; assay: Insecticidal activity against Frankliniella occidentalis TFB (western flower thrips) in compound treated sweet pepper leaf assessed as mortality at 25 +/- 2 degC by leaf dip method; assay type: functional; conditions: in Capsicum annuum, foliar
# [3] = system: Frankliniella occidentalis; assay: Insecticidal activity against Frankliniella occidentalis R1S (western flower thrips) in compound treated sweet pepper leaf assessed as mortality at 25 +/- 2 degC by leaf dip method; assay type: functional; conditions: in Capsicum annuum, foliar
# [4] = system: Frankliniella occidentalis; assay: Insecticidal activity against Frankliniella occidentalis PPP (western flower thrips) in compound treated sweet pepper leaf assessed as mortality at 25 +/- 2 degC by leaf dip method; assay type: functional; conditions: in Capsicum annuum, foliar
# [5] = system: Frankliniella occidentalis; assay: Resistance factor, LC50 for Frankliniella occidentalis PPP (western flower thrips) to LC50 for Frankliniella occidentalis TFR; assay type: functional
# [6] = system: Frankliniella occidentalis; assay: Insecticidal activity against Frankliniella occidentalis SPI5 (western flower thrips) in compound treated sweet pepper leaf assessed as mortality at 150 mg/l at 25 +/- 2 degC by leaf dip method; assay type: functional; conditions: SPI5, in Capsicum annuum, foliar
# [7] = system: Frankliniella occidentalis; assay: Insecticidal activity against Frankliniella occidentalis R1 (western flower thrips) in compound treated sweet pepper leaf assessed as mortality at 150 mg/l at 25 +/- 2 degC by leaf dip method; assay type: functional; conditions: R1, in Capsicum annuum, foliar
# [8] = system: Frankliniella occidentalis; assay: Insecticidal activity against Frankliniella occidentalis TFB (western flower thrips) in compound treated sweet pepper leaf assessed as mortality at 150 mg/l at 25 +/- 2 degC by leaf dip method; assay type: functional; conditions: in Capsicum annuum, foliar
# [9] = system: Frankliniella occidentalis; assay: Insecticidal activity against Frankliniella occidentalis TFA (western flower thrips) in compound treated sweet pepper leaf assessed as mortality at 150 mg/l at 25 +/- 2 degC by leaf dip method; assay type: functional; conditions: in Capsicum annuum, foliar
# [10] = system: Frankliniella occidentalis; assay: Insecticidal activity against Frankliniella occidentalis R1S (western flower thrips) in compound treated sweet pepper leaf assessed as mortality at 1000 mg/l at 25 +/- 2 degC by leaf dip method; conditions: in Capsicum annuum, foliar
# [11] = system: Frankliniella occidentalis; assay: Insecticidal activity against Frankliniella occidentalis TFA (western flower thrips) in compound treated sweet pepper leaf assessed as mortality at 216 mg/l at 25 +/- 2 degC by leaf dip method; assay type: functional; conditions: in Capsicum annuum, foliar
# [12] = system: Frankliniella occidentalis; assay: Insecticidal activity against Frankliniella occidentalis TFB (western flower thrips) in compound treated sweet pepper leaf assessed as mortality at 216 mg/l at 25 +/- 2 degC by leaf dip method; assay type: functional; conditions: in Capsicum annuum, foliar
# [13] = system: Frankliniella occidentalis; assay: Insecticidal activity against Frankliniella occidentalis SPI5 (western flower thrips) in compound treated sweet pepper leaf assessed as mortality at 216 mg/l at 25 +/- 2 degC by leaf dip method; assay type: functional; conditions: SPI5, in Capsicum annuum, foliar
# [14] = system: Frankliniella occidentalis; assay: Insecticidal activity against Frankliniella occidentalis R1 (western flower thrips) in compound treated sweet pepper leaf assessed as mortality at 216 mg/l at 25 +/- 2 degC by leaf dip method; assay type: functional; conditions: R1, in Capsicum annuum, foliar
# [15] = system: Frankliniella occidentalis; assay: Insecticidal activity against Frankliniella occidentalis SPI5 (western flower thrips) in compound treated sweet pepper leaf assessed as mortality at 50 mg/l at 25 +/- 2 degC by leaf dip method; assay type: functional; conditions: SPI5, in Capsicum annuum, foliar
# [16] = system: Frankliniella occidentalis; assay: Insecticidal activity against Frankliniella occidentalis R1 (western flower thrips) in compound treated sweet pepper leaf assessed as mortality at 50 mg/l at 25 +/- 2 degC by leaf dip method; assay type: functional; conditions: R1, in Capsicum annuum, foliar
# [17] = system: Frankliniella occidentalis; assay: Insecticidal activity against Frankliniella occidentalis MOJO (western flower thrips) in compound treated sweet pepper leaf assessed as mortality at 25 +/- 2 degC by leaf dip method; assay type: functional; conditions: in Capsicum annuum, foliar
# [18] = system: Frankliniella occidentalis; assay: Insecticidal activity against Frankliniella occidentalis R1S (western flower thrips) in compound treated sweet pepper leaf assessed as mortality at 50 mg/l at 25 +/- 2 degC by leaf dip method; assay type: functional; conditions: in Capsicum annuum, foliar
# [19] = system: Frankliniella occidentalis; assay: Insecticidal activity against Frankliniella occidentalis TFB (western flower thrips) in compound treated sweet pepper leaf assessed as mortality at 50 mg/l at 25 +/- 2 degC by leaf dip method; assay type: functional; conditions: in Capsicum annuum, foliar
# [20] = system: Frankliniella occidentalis; assay: Resistance factor, LC50 for Frankliniella occidentalis MOJO (western flower thrips) to LC50 for Frankliniella occidentalis TF; assay type: functional
# [21] = system: Frankliniella occidentalis; assay: Resistance factor, LC50 for Frankliniella occidentalis R1S (western flower thrips) to LC50 for Frankliniella occidentalis TF; assay type: functional
# [22] = system: Frankliniella occidentalis; assay: Insecticidal activity against Frankliniella occidentalis TF (western flower thrips) in compound treated sweet pepper leaf assessed as mortality at 25 +/- 2 degC by leaf dip method; assay type: functional; conditions: in Capsicum annuum, foliar
# [23] = system: Frankliniella occidentalis; assay: Insecticidal activity against Frankliniella occidentalis TFA (western flower thrips) in compound treated sweet pepper leaf assessed as mortality at 50 mg/l at 25 +/- 2 degC by leaf dip method; assay type: functional; conditions: in Capsicum annuum, foliar
smiles,measurement,setting,value
C/C(=N\C#N)N(C)Cc1ccc(Cl)nc1 [ACETAMIPRID],RatioLC50,[1],0.2
same,LC50,[2],663 µg/mL
same,LC50,[3],119 µg/mL
same,LC50,[4],116 µg/mL
same,RatioLC50,[5],0.2
O=[N+]([O-])/N=C1\NCCN1Cc1ccc(Cl)nc1 [IMIDACLOPRID],mortality at 150 µg/mL,[6],0%
same,mortality at 150 µg/mL,[7],10%
same,mortality at 150 µg/mL,[8],3.3%
same,mortality at 150 µg/mL,[9],6.7%
CCCCOCCOCCOCc1cc2c(cc1CCC)OCO2 [PIPERONYL BUTOXIDE],mortality at 1000 µg/mL,[10],10%
N#C/N=C1\SCCN1Cc1ccc(Cl)nc1 [THIACLOPRID],mortality at 216 µg/mL,[11],3.3%
same,mortality at 216 µg/mL,[12],10%
same,mortality at 216 µg/mL,[13],3.3%
same,mortality at 216 µg/mL,[14],0%
CN1COCN(Cc2cnc(Cl)s2)/C1=N\[N+](=O)[O-] [THIAMETHOXAM],RatioLC50,[1],0.8
same,mortality at 50 µg/mL,[15],13.3%
same,mortality at 50 µg/mL,[16],16.7%
same,LC50,[17],209 µg/mL
same,LC50,[2],352 µg/mL
same,mortality at 50 µg/mL,[18],0%
same,mortality at 50 µg/mL,[19],20%
same,LC50,[3],298 µg/mL
same,RatioLC50,[20],1
same,LC50,[4],1670 µg/mL
same,RatioLC50,[5],4.8
same,RatioLC50,[21],3
same,LC50,[22],158 µg/mL
same,mortality at 50 µg/mL,[23],10%
